Laboratory results taken from patent publication US7205281B2, “Process for the synchronization of ovulation for timed breeding without heat detection” (priority 2003, dated 2007).

What was measured:
Type in all cases: in vivo, swine
[1] = system: ovariectomized estrogen primed gilt; experiment: Dose response study of LH release in ovariectomized estrogen primed gilt model (RIA); details: single injection of 50 mcg in SAIB
Experimental: A dose response study was performed using deslorelin in SAIB in an ovariectomized estrogen primed gilt model (Barb, et al. (1999) Proceed. Int'l. Symp. Control. Rel. Bioact. Mater., 26).

postpartum sows [2] = experiment: Timed deslorelin injection 96 hours post-weaning and single timed insemination without estrus detection (Example 3)
Experimental: (§1) Approximately 170 postpartum sows were randomly divided into two equal groups comprised of controls and treated. Following weaning, the controls were detected for estrus and bred following the normal standard operating procedures for the farms on which they resided. The treated sows received a 50 mcg dose of deslorelin in SAIB at 96 hours post-weaning and were bred with a single insemination 28+/−2 hours later with no regard to estrus detection. The sows were examined for pregnancy by ultrasound at 21 days and slaughtered around 28 days post breeding. The entire reproductive tract was removed and corpora lutea and embryos were counted.

postpartum sows [3] = experiment: Litter size after deslorelin treatment in postpartum sows at three farm sites (Example 4); details: Tables 3 to 5, regardless of estrus detection
Text: Postpartum sows were randomly distributed into three different groups comprised of Controls, Treatment 1, and Treatment 2, with the exception of Site 3, which was divided into two groups, Control and Treatment 2. Control sows were detected for estrus following weaning, and bred following the normal standard operating procedures for the farms on which they resided. Treatment 1 sows were detected for estrus following weaning, and received a 50 mcg dose of deslorelin in the morning when standing and were bred by AI 4 hours later and again at 24+/−2 hours later. Treatment 2 sows received a 50 mcg dose of deslorelin in SAIB at 96 or 120 hours post-weaning and were bred with a single insemination 28+/−2 hours later with no regard to estrus detection.

mature postpartum sows = experiment: Deslorelin injected intravulvar at estrus detection with AI breeding in mature postpartum sows (Example 2)
Experimental: Sows were assigned randomly in blocks of two to either control or to be injected intravulvar with 50 mcg of deslorelin in SAIB at the time of estrus detection for sows first detected in estrus in the a.m. and 12 hours later for those first detected in estrus in the p.m. Treated animals were bred AI upon detected estrus and again 24 hours later if still in estrus. Controls received a saline injection on first detected estrus behavior estrus detection and were bred according to the farm's normal procedures.

postpartum sows [4] = experiment: Pregnancy rate after deslorelin treatment in sows, summary of Tables 2 to 5; details: Table 6
Experimental: as §1, with “counted. Postpartum sows were randomly distributed into three different groups comprised of Controls, Treatment 1, and Treatment 2, with the exception of Site 3, which was divided into two groups, Control and Treatment 2. Control sows were detected for estrus following weaning, and bred following the normal standard operating procedures for the farms on which they resided. Treatment 1 sows were detected for estrus following weaning, and received a 50 mcg dose of deslorelin in the morning when standing and were bred by AI 4 hours later and again at 24+/−2 hours later. Treatment 2 sows received a 50 mcg dose of deslorelin in SAIB at 96 or 120 hours post-weaning and were bred with a single insemination 28+/−2 hours later with no regard to estrus detection. […]” for “counted.”

[5] = 50 μg deslorelin acetate intravulvar at first estrus detection, AI, AI again if in estrus next day

What does the source list for CCNC(=O)[C@@H]1CCCN1C(=O)[C@H](CCCN=C(N)N)NC(=O)[C@H](CC(C)C)NC(=O)[C@@H](Cc1c[nH]c2ccccc12)NC(=O)[C@H](Cc1ccc(O)cc1)NC(=O)[C@H](CO)NC(=O)[C@H](Cc1c[nH]c2ccccc12)NC(=O)[C@H](Cc1cnc[nH]1)NC(=O)[C@@H]1CCC(=O)N1 [Deslorelin, deslorelin]?
Time of LH return to base level [1]: ≤ 18 h; LH peak relative to normal value ([1]; normal value from Hansel et al. 1973): about twice normal value; Pregnancy Rate (postpartum sows [2]; 50 mcg in SAIB 96 hours post-weaning, single insemination 28+/-2 hours later, no estrus detection): 71%; Sows Pregnant (postpartum sows [2]; 50 mcg in SAIB 96 hours post-weaning, single insemination 28+/-2 hours later, 84 sows in group, ultrasound at 21 days): 60; Embryo Survival (postpartum sows [2]; 50 mcg in SAIB 96 hours post-weaning, slaughter around 28 days post breeding): 64%; Pregnancy rates (postpartum sows [2]; single timed injection post-weaning, single timed insemination, no estrus detection): normal pregnancy rates were attained; Litter sizes (postpartum sows [3]): normal litter sizes; Length of Estrus (mature postpartum sows; [5]): 40.81 h; Pregnancy Rate (mature postpartum sows; [5]): 91%; Pregnancy rates, Control versus Treated (mature postpartum sows; 50 μg intravulvar at first estrus detection): no significant difference; Pregnancy rates (postpartum sows [4]): normal pregnancy rates were obtained
